From a melting point compilation (Tetko et al.)

Structure (SMILES) | melting point
CC(=O)CCc1oc2ccccc2c1-c1ccc(C)o1 | 54 °C
O=C1C(Cl)=C(Cl)C(Cl)=C(Cl)C1(Cl)Cl | 46 to 49 °C
CC1(C)OC2(C)CCC1C(=O)OC2(C)C (stereo unspecified) | 78 °C
O=C1c2ccccc2C(=O)N1CCS(=O)(=O)Cl | 158 °C
Cc1ccc(OCCBr)cc1 | 37 to 38 °C
O=C(OC(=O)c1ccncc1)c1ccncc1 | 133 °C
Cn1cc(Br)c(C=O)n1 | 71 to 72 °C
Cc1cc(C)c(Cc2cnc(NC3=NCCN3)s2)c(C)c1 | 192 to 194 °C
N[C@@H](Cc1ccc(F)cc1)C(=O)O | 253 °C
S=C=Nc1ccc(Oc2ccccc2)cc1 | 42 °C
O=C(O)c1cc2nccnc2s1 | 220 °C
COC(=O)C1(C)CCC(CCc2ccccc2)C1(C)C (stereo unspecified) | 44 °C
Cc1nc2ccc(-c3ccccc3)cc2s1 | 90 to 95 °C
OCC1OC(OC2OC(CO)C(O)C(O)C2O)C(O)C(O)C1O (stereo unspecified) | 203 °C
CC(C)(C)C(O)C(C)(C)C | 50 °C
O=C1OC(C2CCCCC2)Cc2ccccc21 (stereo unspecified) | 71 to 74 °C
Nc1ncnc(Nc2ccc(Cl)cc2)n1 | 233 °C
Nc1ccc(N)cc1 | 146 °C
COC(=O)C1=NC(C)(C)[N+]([O-])=C1 | 80 to 83 °C
Cc1ccc(NC(=O)N(C)C)cc1Cl | 148 °C
CC1(C)CC(=O)C2=C(C1)Nc1c(ccc3ccccc13)C2c1ccc(Cl)cc1Cl (stereo unspecified) | 222 °C
O=[N+]([O-])c1ccc(-c2ccc(NNc3ccccc3)cc2)cc1 | 165 °C
CCCCCCCCCCNC(=O)C(C(F)(F)F)C(F)(F)F | 66 °C
O=C1CC(c2ccccc2)Oc2ccccc21 (stereo unspecified) | 77 °C
Cc1c2c(c(CCl)c3c1CC3)CC2 | 73 °C
Cc1cc(N=Nc2ccccc2)c(C(C)C)cc1N=Nc1ccccc1 | 108 °C

Structure (SMILES) | melting point
CC(C)(C)OC(=O)N1CCC(Oc2ccccc2N)CC1 | 71 to 78 °C
COC(=O)c1ccncc1 | 12.1 °C
NNC(=O)c1cccc2cc[nH]c12 | 178 °C
O=[N+]([O-])c1cccnc1Oc1ccc(F)cc1 | 98 to 99 °C
O=C(c1ccc(Cl)cc1)c1noc(-c2cccc3ccccc23)c1S(=O)(=O)c1ccccc1 | 150 °C
CC(=O)CCc1ccc2c(c1)NC(C)CC2 (stereo unspecified) | 54 °C
c1ccc(-c2nc3ccccc3nc2-c2ccc3c4c(cccc24)CC3)cc1 | 162 °C
O=C(O)c1ccccc1C(c1ccc(O)cc1)c1ccc(O)cc1 | 238 °C
O=Cc1ccc2c(c1[N+](=O)[O-])C(=O)c1c(Cl)c(Cl)c(Cl)c(Cl)c1C2=O | 265 to 268 °C
CN(C)c1ccc(N=Nc2ccc([N+](=O)[O-])cc2)cc1 | 236 °C
COP(=O)(OC)OC(Br)C(Cl)(Cl)Br (stereo unspecified) | 27 °C
FC(F)(F)N1C(F)(F)C(F)(F)OC(F)(F)C1(F)F | -80 °C
c1ccc(C2Cc3ccccc3N2)cc1 (stereo unspecified) | 49 °C
CC(=O)OC1C2=C(C(=O)C(OC(C)=O)C3(CC3C)C2=O)C2(C)CCCC(C)(C)C2C1O (stereo unspecified) | 172 to 173 °C
NC(C(=O)O)C(O)c1ccccc1 (racemic) | 186 °C
O=C(O)C1(c2ccc(F)cc2)CCCC1 | 160 to 165 °C
O=C(Nc1ccc([N+](=O)[O-])cc1[N+](=O)[O-])C(F)(F)C(F)(F)C(F)(F)C(F)(F)C(F)(F)C(F)(F)C(F)(F)C(F)(F)F | 125 °C
CCOC(=O)C1C(C)=NN=C1N (stereo unspecified) | 54 to 56 °C
CCC(=O)c1ccco1 | 28 °C
CCCCCCCCC=CCCCCCCCCOC(=O)OC1CCC2(C)C(=CCC3C2CCC2(C)C(C(C)CCCC(C)C)CCC32)C1 (stereo unspecified) | 20 °C
Cc1nc(C)c(C=O)s1 | 30 °C
COC=C(C(=O)OC)c1ccccc1Oc1cc(Oc2ccccc2C#N)ncn1 | 116 °C
O=Cc1ccc(Cn2cccn2)cc1 | 57 to 59 °C
O=C(C(Cl)Cl)N(CCO)Cc1ccc(Oc2ccc([N+](=O)[O-])cc2)cc1 | 136 °C
CC(C)(C)N(NC(=O)c1ccccc1)C(=O)c1ccccc1Br | 196 °C
CCN(CC)c1cc(Cl)c2nonc2c1[N+](=O)[O-] | 132 to 135 °C

Structure (SMILES) | melting point
CC(=O)COc1c([N+](=O)[O-])ccc(F)c1F | 40 to 45 °C
CSCc1ccccc1 | -28 °C
Cc1ccc2nc3c(ccc4ccccc43)c(C)c2c1 | 159 °C
c1ccc(-c2cc3ccccn3c2)cc1 | 211 to 214 °C
CC1=C(CC(=O)O)c2cc(F)ccc2C1=Cc1ccc(S(C)=O)cc1 (stereo unspecified) | 184 °C
CCC1CC(OP(=O)(O)O)CC(C)(C)N1O (stereo unspecified) | 270 °C
O=C(O)c1ccc(-c2ccc(Cl)cc2)o1 | 198 to 201 °C
CN1CCCN(c2ccc(CO)cc2)CC1 | 97 °C
N#CCCn1cnc2c(N)ncnc21 | 255 °C
Nc1nnc(-c2ccccc2)c(-c2ccccc2)n1 | 177 to 179 °C
BrCc1ccc(I)cc1 | 80 °C
Cc1cc(OC(=O)N(C)C)n(-c2ccccc2)n1 | 50 °C
CC(=O)CC(=O)Nc1ccc(Cl)cc1 | 132 °C
CCCC(CCC)C(=O)O | 125 °C
c1ccc(C2(N3CCCCC3)CCCCC2)cc1 | 46.5 °C
CC1=CC=CC2(C)Cc3ccccc3C(=O)N12 (stereo unspecified) | 177 °C
O=C(CBr)c1cc(-c2ccc(Cl)c(Cl)c2)no1 | 114 to 118 °C
Nc1cccc(-c2cccnc2)c1 | 74 to 78 °C
O=C(O)c1csc(-c2cccc(Cl)c2)n1 | 206 to 207 °C
O=[N+]([O-])c1ccc2[nH]ncc2c1 | 210 °C
Cc1ccc2cc(N)ccc2n1 | 190 °C
CC(=O)C(=CNc1ccc(C)cc1)Cc1ccccc1 | 103 °C
CSc1ccc(Br)cc1 | 38.5 °C
Oc1ccc2c(c1)C13CCCCC1C(C2)N(CCc1ccccc1)CC3 (stereo unspecified) | 244 °C
NNC(=S)NN | 168 to 172 °C
NS(=O)(=O)c1cc(C(=O)O)c(Cl)cc1Cl | 230 to 234 °C

Structure (SMILES) | melting point
COC(=O)c1ccno1 | 49 °C
Clc1ccc(CBr)cc1 | 49 °C
O=C(O)Cc1c[nH]c2ccc(Br)cc12 | 141 to 148 °C
O=c1c2ccccc2c(=O)n2n1C1C=CC2C1 | 231 °C
Cc1ccc(I)cc1N | 47.5 °C
FC(F)(F)C(Cl)(Cl)C(Cl)(Cl)C(F)(F)F | 83.5 °C
Nc1nccc(-c2cc(-c3cccc(C(F)(F)F)c3)no2)n1 | 184 to 185 °C
FC(F)(F)c1ccc(-c2nnc(S)o2)cc1 | 155 to 156 °C
NN1C(=O)c2ccccc2C1=O | 200 to 202 °C
Cc1nn(-c2ccccc2)nc1C(=O)N1CCCC1 | 89 to 90 °C
Oc1c(Cl)cc(Cl)c2ccccc12 | 108 °C
O=C(C1=NOC2C(=O)N(c3ccc(Br)cc3)C(=O)C12)c1ccc2ccccc2c1 (stereo unspecified) | 186 °C
C=CC(C)(C)O | -28 °C
Cc1cc(C)c(C2(C)CC(C(=O)c3cc4cc(Br)ccc4o3)C2)c(C)c1 (stereo unspecified) | 208 to 209 °C
Nc1n[nH]c(N)c1Cc1ccccc1 | 148 to 149 °C
CC(=O)CC(c1ccc(Cl)cc1)c1c(O)c2ccccc2oc1=O (stereo unspecified) | 170 °C
O=C(O)c1cccc2c1CCCC2 | 147 to 150 °C
CC1=N[C@]2(c3ccccc3)Oc3c(c4ccccc4c4ccccc34)O[C@@H]2O1 | 166 °C
CC(=O)Oc1c(-c2ccccc2)n(C(C)=O)c2cc([N+](=O)[O-])ccc12 | 178 °C
Cc1ccc(O)c2ccccc12 | 85.8 °C
COc1cccc(CNC(N)=S)c1 | 91 to 93 °C
O=C1C=CC(=O)N1c1ccc(Br)cc1 | 135 to 137 °C
CC(=O)NCCc1ccccc1[N+](=O)[O-] | 94 °C
Cn1ccc(=O)[nH]c1=O | 237 °C
CC1(C)C2CCC13CS(=O)(=O)N[C@H]3C2 (stereo partly specified) | 181 to 185 °C
Cc1nc([N+](=O)[O-])c(Br)n1CCC#N | 152 to 155 °C

Structure (SMILES) | melting point
CC1(C)C2CCC1(C)C(O)/C2=C\CC(=O)O (stereo unspecified) | 51 to 52 °C
O=Cc1ccc(-c2ccccc2)nc1 | 57 to 59 °C
COc1ccc2c(=O)c(=O)c2c1 | 102 °C
CC(=O)N1CC(O)CC1C(=O)O (stereo unspecified) | 132 °C
Oc1cccc2sccc12 | 79.8 °C
O=C(O)c1cc2cnccc2nc1C(F)(F)F | 233 to 235 °C
O=S(=O)(N(c1ccc(Cl)cn1)S(=O)(=O)C(F)(F)F)C(F)(F)F | 46 °C
C=CCc1ccc2c(c1)OCO2 | 11.2 °C
CC1=C(C)C2=CC=C3C(O)=C(CC(C)O)C(=O)C(O)=C3C2(C)CC1=O (stereo unspecified) | 187 °C
Nc1ccc(OCCN2CCOCC2)cc1 | 53 to 57 °C
CC12CCC3C(C(=O)CC4CC(O)CCC43C)C1CCC2=O (stereo unspecified) | 199 to 200 °C
O=C1NN=C(C(F)(F)F)C1=NNc1ccc(Br)cc1 | 212 °C
C=CC1(C(C)CCC)C(=O)NC(=O)NC1=O (stereo unspecified) | 90 °C
Oc1ccc(Cl)cc1F | 20 °C
Cc1cc(O)cc2c1C(=O)CC(C)(C)O2 | 189 to 191 °C
c1coc(C2CNCCN2)c1 (stereo unspecified) | 87 °C
CCCCCCCCCCCCCCCCCC[Si](OC)(OC)OC | 15 °C
N#Cc1c(C(F)(F)F)cc(Cl)nc1Cl | 38 to 40 °C
CCC(CCC(C)C1CCC2C3=CC=C4CC(O)CCC4(C)C3CCC21C)C(C)C (stereo unspecified) | 144 °C
N#CC1CNc2ccccc2O1 (stereo unspecified) | 63 °C
COc1ccc2cc(C(=O)c3ccccc3)c(=O)oc2c1 | 150 to 153 °C
CCCCN(CC)c1c([N+](=O)[O-])cc(C(F)(F)F)cc1[N+](=O)[O-] | 66 °C
